Test results from patent US20240090503A1, “FUNGICIDAL OXADIAZOLES AND THEIR MIXTURES” (FMC CORPORATION, priority 2020, published 2024).
Marks after values point to notes of the source that are not given here.

Columns and labels:
Format in all cases: in vivo
[1] = test system: Zymoseptoria tritici (the causal agent of wheat leaf blotch); experiment: Test B: preventive spray on wheat seedlings, wheat leaf blotch, visual disease rating; conditions: wheat seedlings
Text: General protocol for preparing test suspensions for Tests A-D: the test compounds were first dissolved in acetone in an amount equal to 3% of the final volume and then suspended at the desired concentration (in ppm) in acetone and purified water (50/50 mix by volume) containing 250 ppm of the surfactant PEG400 (polyhydric alcohol esters). The resulting test suspensions were then used in Tests A-D.
The test suspension was sprayed to the point of run-off on wheat seedlings. The following day the seedlings were inoculated with a spore suspension of Zymoseptoria tritici (the causal agent of wheat leaf blotch) and incubated in a saturated atmosphere at 24° C. for 48 h, and then moved to a growth chamber at 20° C. for 17 days, after which time visual disease ratings were made.
The test results for Tests A-C presented in Table A below for compounds of Formula 1 illustrate the fungicidal activity of component (a) contributing to the plant disease control utility of compositions comprising component (a) in combination with component (b) according to the present invention. In the Table, a rating of 100 indicates 100% disease control and a rating of 0 indicates no disease control (relative to the controls). A dash (-) indicates the compound was not tested. The test suspensions were sprayed at the concentration listed in the column “Rate in ppm”, unless otherwise indicated. An asterisk “*” next to the rating indicates a 250 ppm test suspension was used, a double asterisk “**” next to the rating indicates a 100 ppm test suspension was used, and a triple asterisk “***” next to the rating indicates a 50 ppm test suspension was used.

[2] = test system: Phakopsora pachyrhizi (the causal agent of Asian soybean rust); experiment: Test A: preventive spray on soybean seedlings, Asian soybean rust, visual disease rating; conditions: soybean seedlings
Outline: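 Compound in acetone/water (50/50) with 250 ppm PEG400 sprayed to run-off on soybean seedlings; inoculated next day with Phakopsora pachyrhizi spores. Held 24 h at 22° C in saturated atmosphere, then 8 days in a 22° C growth chamber before visual rating as % disease control relative to controls.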

[3] = test system: Puccinia recondita f. sp. tritici (the causal agent of wheat leaf rust); experiment: Test C: preventive spray on wheat seedlings, wheat leaf rust, visual disease rating; conditions: wheat seedlings
Outline: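 Wheat seedlings sprayed to run-off with compound in acetone/water (50/50) with 250 ppm PEG400, then inoculated with spores the following day. After 24 h saturated humidity at 20° C. and 6 days in growth chamber at 20° C., disease rated visually as % control relative to untreated controls.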

[4] = test suspension 100 ppm (** next to rating)
[5] = test suspension 10 ppm, 100 = 100% disease control, 0 = no control

## Cc1cc(C(F)(F)F)nn1Cc1ccc(-c2noc(C(F)(F)F)n2)cc1 [compound 132]
[1]; test suspension 270 ppm
  Test B disease control rating: 0%
[2]; test suspension 270 ppm
  Test A disease control rating: 100%
[3]; test suspension 270 ppm
  Test C disease control rating: 95%

## FC(F)(F)c1nc(-c2ccc(Cn3cc4cc(Br)ccc4n3)cc2)no1 [compound 133]
[1]; test suspension 255 ppm
  Test B disease control rating: 59%
[2]; test suspension 255 ppm
  Test A disease control rating: 100%
[3]; test suspension 255 ppm
  Test C disease control rating: 100%

## COC(=O)c1nn(Cc2ccc(-c3noc(C(F)(F)F)n3)cc2)c2ccccc12 [compound 134]
[1]; test suspension 255 ppm
  Test B disease control rating: 0%
[2]; test suspension 255 ppm
  Test A disease control rating: 100%
[3]; test suspension 255 ppm
  Test C disease control rating: 80%

## COC(=O)c1nncn1Cc1ccc(-c2noc(C(F)(F)F)n2)cc1 [compound 138]
[1]; test suspension 260 ppm
  Test B disease control rating: 96%
[2]; test suspension 260 ppm
  Test A disease control rating: 100%
[3]; test suspension 260 ppm
  Test C disease control rating: 100%

## COC(=O)c1ncn(Cc2ccc(-c3noc(C(F)(F)F)n3)cc2)n1 [compound 139]
[1]; test suspension 255 ppm
  Test B disease control rating: 62%
[2]; test suspension 255 ppm
  Test A disease control rating: 100%
[3]; test suspension 255 ppm
  Test C disease control rating: 100%

## FC(F)(F)c1nc(-c2ccc(Cn3ccc(-c4ccccc4Cl)n3)cc2)no1 [compound 142]
[1]; test suspension 250 ppm
  Test B disease control rating: 57%
[2]; test suspension 250 ppm
  Test A disease control rating: 100%
[3]; test suspension 250 ppm
  Test C disease control rating: 100%

## FC(F)(F)c1nc(-c2ccc(Cn3ncc4ccccc43)cc2)no1 [compound 143]
[1]; test suspension 250 ppm
  Test B disease control rating: 71%
[2]; test suspension 250 ppm
  Test A disease control rating: 100%
[3]; test suspension 250 ppm
  Test C disease control rating: 100%

## FC(F)(F)c1cc(C(F)(F)F)n(Cc2ccc(-c3noc(C(F)(F)F)n3)cc2)n1 [compound 144]
[1]; test suspension 250 ppm
  Test B disease control rating: 0%
[2]; test suspension 250 ppm
  Test A disease control rating: 36%
[3]; test suspension 250 ppm
  Test C disease control rating: 0%

## Cc1cc(C)n(Cc2ccc(-c3noc(C(F)(F)F)n3)cc2)n1 [compound 145]
[1]; test suspension 250 ppm
  Test B disease control rating: 0%
[2]; test suspension 250 ppm
  Test A disease control rating: 100%
[3]; test suspension 250 ppm
  Test C disease control rating: 100%

## FC(F)(F)c1nc(-c2ccc(Cn3cc(Br)c(-c4ccccc4Cl)n3)cc2)no1 [compound 146]
[1]; test suspension 250 ppm
  Test B disease control rating: 0%
[2]; test suspension 250 ppm
  Test A disease control rating: 100%
[3]; test suspension 250 ppm
  Test C disease control rating: 0%

## FC(F)(F)c1nc(-c2ccc(CN3CCC4(CC3)OCCO4)cc2)no1 [compound 149]
[1]; test suspension 260 ppm
  Test B disease control rating: 72%
[2]; test suspension 260 ppm
  Test A disease control rating: 100%
[3]; test suspension 260 ppm
  Test C disease control rating: 100%

## O=C1CCN(Cc2ccc(-c3noc(C(F)(F)F)n3)cc2)CC1 [compound 150]
[1]; test suspension 255 ppm
  Test B disease control rating: 19%
[2]; test suspension 255 ppm
  Test A disease control rating: 100%
[3]; test suspension 255 ppm
  Test C disease control rating: 100%

## FC(F)(F)c1ccn(Cc2ccc(-c3noc(C(F)(F)F)n3)cc2)n1 [compound 153]
[1]; test suspension 250 ppm
  Test B disease control rating: 0%
[2]; test suspension 250 ppm
  Test A disease control rating: 100%
[3]; test suspension 250 ppm
  Test C disease control rating: 89%

## O=c1sc2ccccc2n1Cc1ccc(-c2noc(C(F)(F)F)n2)cc1 [compound 156]
[1]; test suspension 255 ppm
  Test B disease control rating: 86%
[2]; test suspension 255 ppm
  Test A disease control rating: 100%
[3]; test suspension 255 ppm
  Test C disease control rating: 100%

## O=C1N(Cc2ccc(-c3noc(C(F)(F)F)n3)cc2)c2ccccc2C1(F)F [compound 161]
[1]; test suspension 265 ppm
  Test B disease control rating: 33%
[2]; test suspension 265 ppm
  Test A disease control rating: 100%
[3]; test suspension 265 ppm
  Test C disease control rating: 99%

## FC(F)(F)c1nc(-c2ccc(Cn3cccn3)cc2)no1 [compound 162]
[1]; test suspension 250 ppm
  Test B disease control rating: 0%
[2]; test suspension 250 ppm
  Test A disease control rating: 100%
[3]; test suspension 250 ppm
  Test C disease control rating: 100%

## FC(F)(F)c1nc(-c2ccc(Cn3cc(Br)cn3)cc2)no1 [compound 163]
[1]; test suspension 250 ppm
  Test B disease control rating: 0%
[2]; test suspension 250 ppm
  Test A disease control rating: 100%
[3]; test suspension 250 ppm
  Test C disease control rating: 100%

## NC(=O)C1=NOC(Cc2ccc(-c3noc(C(F)(F)F)n3)cc2)C1 (stereo not drawn) [compound 164]
[1]; test suspension 250 ppm
  Test B disease control rating: 88%
[2]; test suspension 250 ppm
  Test A disease control rating: 100%
[3]; test suspension 250 ppm
  Test C disease control rating: 100%

## CNC(=O)C1=NOC(Cc2ccc(-c3noc(C(F)(F)F)n3)cc2)C1 (stereo not drawn) [compound 165]
[1]; test suspension 260 ppm
  Test B disease control rating: 95%
[2]; test suspension 260 ppm
  Test A disease control rating: 100%
[3]; test suspension 260 ppm
  Test C disease control rating: 100%

## C=CCOC(=O)c1cnn(Cc2ccc(-c3noc(C(F)(F)F)n3)cc2)c1 [compound 166]
[1]; [4]
  Test B disease control rating: 90** %
[2]; [5]
  Test A disease control rating: 100%
[3]; test suspension 10 ppm
  Test C disease control rating: 100%

## C=C(C)COC(=O)c1cnn(Cc2ccc(-c3noc(C(F)(F)F)n3)cc2)c1 [compound 170]
[1]; [4]
  Test B disease control rating: 97** %
[2]; [5]
  Test A disease control rating: 100%
[3]; test suspension 10 ppm
  Test C disease control rating: 100%

## CC(C)COC(=O)c1cnn(Cc2ccc(-c3noc(C(F)(F)F)n3)cc2)c1 [compound 171]
[1]; [4]
  Test B disease control rating: 37** %
[2]; [5]
  Test A disease control rating: 100%
[3]; test suspension 10 ppm
  Test C disease control rating: 100%

## CCNC(=O)C1=NOC(Cc2ccc(-c3noc(C(F)(F)F)n3)cc2)C1 (stereo not drawn) [compound 175]
[1]; test suspension 255 ppm
  Test B disease control rating: 95%
[2]; test suspension 255 ppm
  Test A disease control rating: 100%
[3]; test suspension 255 ppm
  Test C disease control rating: 100%

## C#CCNC(=O)C1=NOC(Cc2ccc(-c3noc(C(F)(F)F)n3)cc2)C1 (stereo not drawn) [compound 176]
[1]; test suspension 250 ppm
  Test B disease control rating: 92%
[2]; test suspension 250 ppm
  Test A disease control rating: 100%
[3]; test suspension 250 ppm
  Test C disease control rating: 100%

## O=C(C1=NOC(Cc2ccc(-c3noc(C(F)(F)F)n3)cc2)C1)N1CCC1 (stereo not drawn) [compound 177]
[1]; test suspension 250 ppm
  Test B disease control rating: 97%
[2]; test suspension 250 ppm
  Test A disease control rating: 100%
[3]; test suspension 250 ppm
  Test C disease control rating: 100%

## FC(F)(F)c1nc(-c2ccc(CNC3CC3)s2)no1 [compound 191]
[1]; test suspension 250 ppm
  Test B disease control rating: 96* %
[2]; test suspension 50 ppm
  Test A disease control rating: 100%
[3]; test suspension 50 ppm
  Test C disease control rating: 100%

## CCOC(=O)c1cnn(Cc2csc(-c3noc(C(F)(F)F)n3)c2)c1 [compound 193]
[1]; test suspension 250 ppm
  Test B disease control rating: 28* %
[2]; test suspension 50 ppm
  Test A disease control rating: 100%
[3]; test suspension 50 ppm
  Test C disease control rating: 100%

## CCOC(=O)c1csc(Cc2ccc(-c3noc(C(F)(F)F)n3)s2)n1 [compound 201]
[1]; test suspension 250 ppm
  Test B disease control rating: 28%
[2]; test suspension 250 ppm
  Test A disease control rating: 100%
[3]; test suspension 250 ppm
  Test C disease control rating: 100%

## O=C(NCC1CC1)c1csc(Cc2ccc(-c3noc(C(F)(F)F)n3)s2)n1 [compound 202]
[1]; test suspension 250 ppm
  Test B disease control rating: 83%
[2]; test suspension 250 ppm
  Test A disease control rating: 100%
[3]; test suspension 250 ppm
  Test C disease control rating: 100%

## CCOC(=O)c1cnn(Cc2ccc(-c3noc(C(F)(F)F)n3)o2)c1 [compound 210]
[1]; test suspension 250 ppm
  Test B disease control rating: 63* %
[2]; test suspension 50 ppm
  Test A disease control rating: 100%
[3]; test suspension 50 ppm
  Test C disease control rating: 99%

## CCCOC(=O)c1cnn(Cc2ccc(-c3noc(C(F)(F)F)n3)o2)c1 [compound 211]
[1]; test suspension 250 ppm
  Test B disease control rating: 70* %
[2]; test suspension 50 ppm
  Test A disease control rating: 100%
[3]; test suspension 50 ppm
  Test C disease control rating: 100%

## O=C(NCC(F)(F)F)c1cnn(COc2ccc(-c3noc(C(F)(F)F)n3)cc2)c1 [compound 212]
[1]; test suspension 250 ppm
  Test B disease control rating: 79* %
[2]; [5]
  Test A disease control rating: 100%
[3]; test suspension 10 ppm
  Test C disease control rating: 100%

## COCCNC(=O)c1cnn(COc2ccc(-c3noc(C(F)(F)F)n3)cc2)c1 [compound 213]
[1]; test suspension 250 ppm
  Test B disease control rating: 82* %
[2]; [5]
  Test A disease control rating: 100%
[3]; test suspension 10 ppm
  Test C disease control rating: 74%

## N#CCNC(=O)c1cnn(COc2ccc(-c3noc(C(F)(F)F)n3)cc2)c1 [compound 214]
[1]; test suspension 250 ppm
  Test B disease control rating: 73* %
[2]; [5]
  Test A disease control rating: 100%
[3]; test suspension 10 ppm
  Test C disease control rating: 74%

## O=C(NCCn1cccn1)c1cnn(COc2ccc(-c3noc(C(F)(F)F)n3)cc2)c1 [compound 215]
[1]; test suspension 250 ppm
  Test B disease control rating: 90* %
[2]; [5]
  Test A disease control rating: 99%
[3]; test suspension 10 ppm
  Test C disease control rating: 74%

## O=C(OCC1CC1)c1cnn(COc2ccc(-c3noc(C(F)(F)F)n3)cc2)c1 [compound 216]
[1]; test suspension 250 ppm
  Test B disease control rating: 9* %
[2]; [5]
  Test A disease control rating: 100%
[3]; test suspension 10 ppm
  Test C disease control rating: 74%

## CCCOC(=O)c1cnn(COc2ccc(-c3noc(C(F)(F)F)n3)cc2)c1 [compound 217]
[1]; test suspension 250 ppm
  Test B disease control rating: 35* %
[2]; [5]
  Test A disease control rating: 100%
[3]; test suspension 10 ppm
  Test C disease control rating: 86%

## CN(C)C(=O)C1=NOC(CCOc2cccc(-c3noc(C(F)(F)F)n3)c2)C1 (stereo not drawn) [compound 224]
[1]; Zymoseptoria tritici, 456 h, test suspension 250 ppm
  pest or weed control at 250 µg/mL: 81%
[2]; Phakopsora pachyrhizi, 216 h, test suspension 50 ppm
  pest or weed control at 50 µg/mL: 100%
[3]; Puccinia recondita, 168 h, test suspension 50 ppm
  pest or weed control at 50 µg/mL: 89%

## O=C(NCC1CC1(F)F)c1coc(Cc2ccc(-c3noc(C(F)(F)F)n3)cc2)n1 (stereo not drawn) [compound 226]
[1]; test suspension 250 ppm
  Test B disease control rating: 94* %
[2]; [5]
  Test A disease control rating: 100%
[3]; test suspension 10 ppm
  Test C disease control rating: 100%
